From patent US11667675B2, “MASP inhibitory compounds and uses thereof” (Bayer Aktiengesellschaft, priority 2019, dated 2023)
Structures can show the parent of a compound that is named as a salt. Numbered stars: 1 amine (or outer) side, 2 acyl side, 3 side chain; on linkers, the order of the positions; unused ones are H or OH. Bridge positions count the residues as written; N and C are the ends. Square brackets hold non-standard residues; d marks the D form. Peptide text beside a SMILES is read from it. * marks the point of attachment. X1 = O=C(C1[C@H]2CCCC[C@H]2C[C@H]1C(=O)[*:2])[C@@H]1CCCN1[*:1]; Oic = O=C(O)[C@@H]1C[C@@H]2CCCC[C@@H]2N1; Pen = CC(C)(S)[C@H](N)C(=O)O; X2 = N[C@@H](CN*)C(=O)O; Sar = CNCC(=O)O

What was measured:
rat MASP1 = molecular target: T1, rat MASP1 (Rattus norvegicus, UniProt Q8CHN8); assay: Biochemical rat MASP1 assay (FRET substrate); settings: average IC50; recombinant rat MASP1, FRET substrate
T1 construct: Ig-kappa secretion signal (N, cleaved yes); made in house; host or cells: HEK293 (ATCC No. CRL-1573)
T1 sequence (Q8CHN8 302-453 limits assumed): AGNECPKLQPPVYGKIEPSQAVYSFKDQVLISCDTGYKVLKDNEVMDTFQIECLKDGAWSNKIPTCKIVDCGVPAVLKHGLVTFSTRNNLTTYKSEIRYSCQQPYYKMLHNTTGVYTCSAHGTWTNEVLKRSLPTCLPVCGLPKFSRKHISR
T1 sequence (Q8CHN8 454-704 limits assumed): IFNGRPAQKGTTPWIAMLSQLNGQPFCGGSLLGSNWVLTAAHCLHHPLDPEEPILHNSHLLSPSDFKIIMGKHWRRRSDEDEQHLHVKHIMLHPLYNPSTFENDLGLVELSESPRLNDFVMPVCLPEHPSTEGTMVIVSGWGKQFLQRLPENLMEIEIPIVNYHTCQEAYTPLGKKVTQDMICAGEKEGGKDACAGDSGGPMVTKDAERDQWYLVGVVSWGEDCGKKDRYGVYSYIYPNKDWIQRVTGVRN
Text: 4. Biochemical Rat MASP-1 and MASP-2 Assay
4.1 Recombinant Expression and Protein Production of Recombinant Human and Rat MASP1 and MASP2 Active Proteases.
A truncated cDNA sequence of rat MASP1 encoding the fragment corresponding to the amino acids 302-704 with an C-terminal His Tag and N-terminal Ig-kappa secretion signal (SEQ ID No: 4) was subcloned into the mammalian expression vector pcDNA3.1 (Invitrogen).
(§1) The MASP1 or MASP2 expression vectors were transfected into the HEK293 (ATCC No. CRL-1573) cell line using Lipofectamine LTX® Reagent (Thermo-Fischer), as described by the manufacturer. The mature form of the recombinant rat MASP1 and MASP2 proteases were secreted into the culture medium. The MASP1 and MASP2 proteins were purified from the conditioned media by affinity chromatography on Ni-NTA Superflow resin (Qiagen) as described by the manufacturer.
4.2 Biochemical Rat MASP1 Assay.
Recombinant rat MASP1 enzyme produced in the HEK 293 cells was diluted in the reaction buffer (50 mM HEPES pH 8,0; 100 mM NaCl; 0.01% CHAPS; 0.5 mM Gluthathione) to the concentration of 4 nM and 25 μl was transferred into each single well of 384-well white microtiter plate (Greiner Bio One 781075). 1 μl of the inhibitor compound solution (dissolved in DMSO, at the corresponding concentration) or pure DMSO as a control was added to the same wells. The enzymatic reaction was initiated by addition of 25 μl of 40 μM solution of the FRET substrate Dabcyl-[…]-Glu(Edans)-NH2 (SEQ ID NO: 8); (Dabcyl—4-((4-(dimethylamino)phenyl)azo)benzoic acid; Edans—5-[(2-Aminoethyl) amino]naphthalene-1-sulfonyl; custom synthesis by Jerini Peptide Technologies, Berlin) in the reaction buffer. The microtiter plate was incubated for 60-120 min at the temperature of 32 C. The increase of fluorescence intensity was measured in appropriate fluorescence plate reader (e.g. TECAN Ultra) using excitation wavelength of 340 nm and emission wavelength of 490 nm. IC50 values were calculated from percentage of inhibition of rat […] activity as a function of test compound concentration.

human MASP2 = molecular target: T2, human MASP2 (Homo sapiens, UniProt O00187); assay: Biochemical human MASP2 assay (FRET substrate); settings: average IC50
T2 construct: Ig-kappa secretion signal (N, cleaved yes); made in house; host or cells: HEK293 (ATCC No. CRL-1573)
T2 sequence (O00187 297-444): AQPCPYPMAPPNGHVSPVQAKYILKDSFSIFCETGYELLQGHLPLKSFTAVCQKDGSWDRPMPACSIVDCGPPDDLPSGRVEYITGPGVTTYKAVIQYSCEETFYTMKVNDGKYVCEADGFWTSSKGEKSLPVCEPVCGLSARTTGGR
T2 sequence (O00187 445-686): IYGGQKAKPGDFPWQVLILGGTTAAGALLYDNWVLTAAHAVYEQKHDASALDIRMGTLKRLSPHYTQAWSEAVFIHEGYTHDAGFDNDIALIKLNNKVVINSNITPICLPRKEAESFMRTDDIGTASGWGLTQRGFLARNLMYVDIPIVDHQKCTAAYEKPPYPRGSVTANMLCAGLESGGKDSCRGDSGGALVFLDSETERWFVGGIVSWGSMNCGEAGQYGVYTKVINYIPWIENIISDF
Text: 2.1 Recombinant Expression and Protein Production of Recombinant Human MASP1 and MASP2 Active Proteases.
as §1, with “The mature form of the recombinant rat MASP1 and MASP2 proteases were secreted into the culture medium.” left out
2.3 Biochemical Human MASP2 Assay
Recombinant human MASP2 enzyme produced in the HEK 293 cells was diluted in the reaction buffer (50 mM HEPES pH 8,0; 100 mM NaCl; 0.01% CHAPS; 0.5 mM Gluthathione) to the concentration of 20 nM and 25 μl was transferred into each single well of 384-well white microtiter plate (Greiner Bio One 781075). 1 μl of the inhibitor compound solution (dissolved in DMSO, at the corresponding concentration) or pure DMSO as a control was added to the same wells. […] The microtiter plate was incubated for 60-120 min at the temperature of 32 C. The increase of fluorescence intensity was measured in appropriate fluorescence plate reader (e.g. TECAN Ultra) using excitation wavelength of 340 nm and emission wavelength of 490 nm. IC50 values were calculated from percentage of inhibition of human MASP2 activity as a function of test compound concentration.

rat C3-[…] = assay: C3 deposition assay, rat serum on mannan-coated plates; format: biochemical; settings: average IC50
Description: 3. C3 Deposition Assay (Human, Rat, Mouse, Dog, Mini-Pig)
The C3 deposition assay was conducted essentially as described (reference). Multi well plates (Greiner-Nunc 384 Maxi Sorp #464718) were coated over night with Mannan from Saccharomyces cerevisiae (Sigma M7504, 10 μg/mL in 0.05 M carbonate-bicarbonate buffer, pH 9.6) at 4° C. Wells were washed three times with TBS and subsequently incubated for 2 hours with 50 μL of 1% bovine serum albumin (BSA) in Tris-buffered saline (TBS) at 37° C. in order to block non-specific binding. After this step and each of the following incubation steps wells were washed three times with C3 wash buffer (TBS; 0.05% Tween 20; 5 mM CaCl2). […] When appropriately developed the color reaction was stopped by addition of 25 μL of stop solution (Sigma S5814) and quantified on a photometer by measuring absorption at a wavelength of 450 nm. Antibodies were diluted in C3 wash buffer supplemented with 0.5% BSA.

Compound	IC50 (rat MASP1)	IC50 (human MASP2)	IC50 (rat C3-[…])
CC[C@H](C)[C@H](NC(=O)[C@H](C)NC)C(=O)N[C@H]1CSSC(C)(C)[C@@H](C(=O)N[C@H](C(=O)N2CCC[C@H]2C(N)=O)[C@@H](C)CC)NC(=O)[C@H]([C@@H](C)CC)NC(=O)[C@@H]2C[C@@]3(CN2C(=O)[C@@H]2CCCN2C(=O)[C@@H](CC(C)(C)C)NC(=O)[C@H](CO)NC(=O)[C@H](CCCNC(=N)N)NC(=O)[C@H](CO)NC1=O)CC3(F)F (single isomer, unassigned; enantiomer 1) [Example 443]	29 nM	74 nM	–
CC[C@H](C)[C@H](NC(=O)CNC)C(=O)N[C@H]1CSSC(C)(C)[C@@H](C(=O)N[C@H](C(=O)N2CCC[C@H]2C(N)=O)[C@@H](C)CC)NC(=O)[C@H]([C@@H](C)CC)NC(=O)[C@@H]2C[C@@H]3CCCC[C@@H]3C2C(=O)[C@@H]2CCCN2C(=O)[C@H](CC(C)C)NC(=O)[C@H](CO)NC(=O)[C@H](CCCNC(=N)N)NC(=O)[C@H](CO)NC1=O (stereo partly shown) [Example 67, ((N-Me)G)-IC+SRSLP-(Oic)-I-(Pen)+IP-NH2 (HCl Salt)] (H-[Sar]ICSRSL[X1]I[Pen]IP-NH2; disulfide 3-10)	72 nM	43 nM	–
CC[C@H](C)[C@H](NC(=O)CNC)C(=O)N[C@H]1CSSC(C)(C)[C@@H](C(=O)N[C@H](C(=O)N2CCC[C@H]2C(N)=O)[C@@H](C)CC)NC(=O)[C@H]([C@@H](C)CC)NC(=O)[C@@H]2C[C@@H]3CCCC[C@@H]3N2C(=O)[C@@H]2CCCN2C(=O)[C@H](CC(C)C)NC(=O)[C@H](CO)NC(=O)[C@H](CCCNC(=N)N)NC(=O)[C@H](CO)NC1=O [Example 109, ((N-Me)G)-IC+SRSLP-(Oic)-I-(Pen)+IP-NH2] (H-[Sar]ICSRSLP[Oic]I[Pen]IP-NH2; disulfide 3-11)	76 nM	69.6 nM	–
[2H][C@@H]1[C@H]([2H])CN2C(=O)[C@H](CC(C)C)NC(=O)[C@H](CO)NC(=O)[C@H](CCCNC(=N)N)NC(=O)[C@H](CO)NC(=O)[C@@H](NC(=O)[C@@H](NC(=O)[C@H](C)N)[C@@H](C)CC)CSSC(C)(C)[C@@H](C(=O)N[C@H](C(=O)N3CCC[C@H]3C(=O)N[C@@H](CC(=O)O)C(=O)O)[C@@H](C)CC)NC(=O)[C@H]([C@@H](C)CC)NC(=O)[C@@H]3C[C@@H]4CCCC[C@@H]4N3C(=O)[C@H]12 [Example 142, N-[(1R,2S,6S,9S,12S,15S,18R,23R,26S,28aS,35aS)-18-[(L-alanyl-L-isoleucyl)amino]-26-[(2S)-butan-2-yl]-12-(3-carbamimidamidopropyl)-9,15-bis(hydroxymethyl)-22,22-dimethyl-6-(2-methylpropyl)-5,8,11,14,17,25,28,35-octaoxo(1,2-^2H2)dotriacontahydro-1H,5H,22H-pyrrolo[2′,1′:13,14][1,2,5,8,11,14,17,20,23,26]dithiaoctaazacyclononacosino[11,10-a]indole-23-carbonyl]-L-isoleucyl-L-prolyl-L-aspartic Acid]	10.9 nM	126 nM	472 nM
CC[C@H](C)[C@H](NC(=O)[C@H](C)N)C(=O)N[C@H]1CSSC[C@@H](C(=O)N[C@H](C(=O)N2CCC[C@H]2C(=O)N[C@@H](CC(=O)O)C(N)=O)[C@@H](C)CC)N(C)C(=O)[C@H]([C@@H](C)CC)NC(=O)[C@@H]2C[C@@H]3CCCC[C@@H]3N2C(=O)[C@@H]2CCCN2C(=O)[C@H](CC(C)C)NC(=O)[C@H](CO)NC(=O)[C@H](CCCNC(=N)N)NC(=O)[C@H](CO)NC1=O [Example 185, AIC+SRSLP-(Oic)-I-((N-Me)C)+IPD-NH2]	57 nM	245 nM	236 nM
CC[C@H](C)[C@H](NC(=O)CNC)C(=O)N[C@H]1CSSC(C)(C)[C@@H](C(=O)N[C@H](C(=O)N2CCC[C@H]2C(=O)N[C@@H](CC(=O)O)C(=O)N[C@@H](CC(=O)O)C(=O)O)[C@@H](C)CC)NC(=O)[C@H]([C@@H](C)CC)NC(=O)[C@@H]2C[C@@H]3CCCC[C@@H]3N2C(=O)[C@@H]2CCCN2C(=O)[C@H](CC(C)C)NC(=O)[C@H](CO)NC(=O)[C@H](CCCNC(=N)N)NC(=O)[C@H](CO)NC1=O [Example 466, ((N-Me)G)-IC+SRSLP-(Oic)-I-(Pen)+IPDD-OH] (H-[Sar]ICSRSLP[Oic]I[Pen]IPDD-OH; disulfide 3-11)	17.6 nM	40 nM	–
CC[C@H](C)[C@H](NC(=O)CNC)C(=O)N[C@H]1CSSC(C)(C)[C@@H](C(=O)N[C@H](C(=O)N2CCC[C@H]2C(=O)NC[C@H](N)C(=O)O)[C@@H](C)CC)NC(=O)[C@H]([C@@H](C)CC)NC(=O)[C@@H]2C[C@@H]3CCCC[C@@H]3N2C(=O)[C@@H]2CCCN2C(=O)[C@H](CC(C)C)NC(=O)[C@H](CO)NC(=O)[C@H](CCCNC(=N)N)NC(=O)[C@H](CO)NC1=O [Example 467] (H-[Sar]ICSRSLP[Oic]I[Pen]IP-X2; disulfide 3-11)	170 nM	55 nM	–
